Laboratory results taken from ChEMBL document CHEMBL1201862, “PubChem BioAssay data set” (2004).
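Cultured in 96-well plates, cells were exposed to test compound for 48 hours across five concentrations. Here, GI50 denotes the concentration required for 50% inhibition of growth.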 Calls of active or inactive are those of the source. Rule as the data show it: active = GI50 up to about 1.1 µM and inactive = higher.

Experiments:
Test in all cases: growth of human tumour cells (NCI), 48 h
UO-31 = tested on: UO-31
MCF7 = tested on: MCF7
786-0 = tested on: 786-0
NCI/ADR-RES = tested on: NCI/ADR-RES
CCRF-CEM = tested on: CCRF-CEM
PC-3 = tested on: PC-3
HT-29 = tested on: HT-29
TK-10 = tested on: TK-10
COLO 205 = tested on: COLO 205
KM12 = tested on: KM12
A549 = tested on: A549
SW-620 = tested on: SW-620
NCI-H522 = tested on: NCI-H522
SNB-75 = tested on: SNB-75
SK-MEL-28 = tested on: SK-MEL-28
UACC-62 = tested on: UACC-62
EKVX = tested on: EKVX
NCI-H226 = tested on: NCI-H226
NCI-H460 = tested on: NCI-H460
SK-MEL-5 = tested on: SK-MEL-5
UACC-257 = tested on: UACC-257
OVCAR-4 = tested on: OVCAR-4
HOP-62 = tested on: HOP-62
HL-60 = tested on: HL-60
RXF 393 = tested on: RXF 393
MDA-MB-231 = tested on: MDA-MB-231
U-251 = tested on: U-251
OVCAR-3 = tested on: OVCAR-3
DU-145 = tested on: DU-145
Hs-578T = tested on: Hs-578T
SNB-19 = tested on: SNB-19
OVCAR-8 = tested on: OVCAR-8
LOX IMVI = tested on: LOX IMVI
HCT-116 = tested on: HCT-116
HOP-92 = tested on: HOP-92
CAKI-1 = tested on: CAKI-1
OVCAR-5 = tested on: OVCAR-5
SF-268 = tested on: SF-268
MOLT-4 = tested on: MOLT-4
SF-295 = tested on: SF-295
HCC 2998 = tested on: HCC 2998
M14 = tested on: M14
ACHN = tested on: ACHN
SK-MEL-2 = tested on: SK-MEL-2
IGROV-1 = tested on: IGROV-1
MDA-MB-435 = tested on: MDA-MB-435
SF-539 = tested on: SF-539
SK-OV-3 = tested on: SK-OV-3
HCT-15 = tested on: HCT-15
SN12C = tested on: SN12C
NCI-H23 = tested on: NCI-H23
BT-549 = tested on: BT-549
K562 = tested on: K562
RPMI-8226 = tested on: RPMI-8226
T47D = tested on: T47D
Malme-3M = tested on: Malme-3M
A498 = tested on: A498
MDA-N = tested on: MDA-N

Compound: NC(=S)N/N=C(\Cc1nc2ccc(Cl)cc2nc1O)C(=O)Nc1ccc(Cl)cc1
- GI50 (UO-31): 40 µM (inactive)
- GI50 (MCF7): > 100 µM (inactive)
- GI50 (786-0): > 100 µM (inactive)
- GI50 (NCI/ADR-RES): > 100 µM (inactive)
- GI50 (CCRF-CEM): > 100 µM (inactive)
- GI50 (PC-3): > 100 µM (inactive)
- GI50 (HT-29): > 100 µM (inactive)
- GI50 (TK-10): > 100 µM (inactive)
- GI50 (COLO 205): > 100 µM (inactive)
- GI50 (KM12): > 100 µM (inactive)
- GI50 (A549): > 100 µM (inactive)
- GI50 (SW-620): > 100 µM (inactive)
- GI50 (NCI-H522): > 100 µM (inactive)
- GI50 (SNB-75): > 100 µM (inactive)
- GI50 (SK-MEL-28): > 100 µM (inactive)
- GI50 (UACC-62): > 100 µM (inactive)
- GI50 (EKVX): 76 µM (inactive)
- GI50 (NCI-H226): 96.2 µM (inactive)
- GI50 (NCI-H460): > 100 µM (inactive)
- GI50 (SK-MEL-5): > 100 µM (inactive)
- GI50 (UACC-257): > 100 µM (inactive)
- GI50 (OVCAR-4): > 100 µM (inactive)
- GI50 (HOP-62): > 100 µM (inactive)
- GI50 (HL-60): > 100 µM (inactive)
- GI50 (RXF 393): > 100 µM (inactive)
- GI50 (MDA-MB-231): > 100 µM (inactive)
- GI50 (U-251): > 100 µM (inactive)
- GI50 (OVCAR-3): > 100 µM (inactive)
- GI50 (DU-145): > 100 µM (inactive)
- GI50 (Hs-578T): > 100 µM (inactive)
- GI50 (SNB-19): > 100 µM (inactive)
- GI50 (OVCAR-8): > 100 µM (inactive)
- GI50 (LOX IMVI): > 100 µM (inactive)
- GI50 (HCT-116): > 100 µM (inactive)
- GI50 (HOP-92): 40.3 µM (inactive)
- GI50 (CAKI-1): > 100 µM (inactive)
- GI50 (OVCAR-5): > 100 µM (inactive)
- GI50 (SF-268): > 100 µM (inactive)
- GI50 (MOLT-4): > 100 µM (inactive)
- GI50 (SF-295): > 100 µM (inactive)
- GI50 (HCC 2998): > 100 µM (inactive)
- GI50 (M14): > 100 µM (inactive)
- GI50 (ACHN): > 100 µM (inactive)
- GI50 (SK-MEL-2): > 100 µM (inactive)
- GI50 (IGROV-1): > 100 µM (inactive)
- GI50 (MDA-MB-435): > 100 µM (inactive)
- GI50 (SF-539): > 100 µM (inactive)
- GI50 (SK-OV-3): > 100 µM (inactive)
- GI50 (HCT-15): > 100 µM
- GI50 (SN12C): > 100 µM (inactive)
- GI50 (NCI-H23): > 100 µM (inactive)
- GI50 (BT-549): > 100 µM (inactive)

Compound: CC(SC(=S)N1CCCCC1)C(=O)Nc1nnc(-c2ccc(Cl)cc2)o1 (stereo not given)
- GI50 (UO-31): 17.8 µM (inactive)
- GI50 (MCF7): 25.8 µM (inactive)
- GI50 (786-0): 16.9 µM (inactive)
- GI50 (K562): 41.4 µM (inactive)
- GI50 (NCI/ADR-RES): 17.5 µM (inactive)
- GI50 (PC-3): 24.2 µM (inactive)
- GI50 (HT-29): 23 µM (inactive)
- GI50 (TK-10): 50.6 µM (inactive)
- GI50 (COLO 205): 34.9 µM (inactive)
- GI50 (A549): 30.3 µM (inactive)
- GI50 (SW-620): 36.2 µM (inactive)
- GI50 (SNB-75): 20.1 µM (inactive)
- GI50 (RPMI-8226): 20.2 µM (inactive)
- GI50 (SK-MEL-28): 63.7 µM (inactive)
- GI50 (UACC-62): 25.2 µM (inactive)
- GI50 (NCI-H226): 38.5 µM (inactive)
- GI50 (NCI-H460): 27.2 µM (inactive)
- GI50 (SK-MEL-5): 32.1 µM (inactive)
- GI50 (UACC-257): 37.5 µM (inactive)
- GI50 (OVCAR-4): 27.4 µM (inactive)
- GI50 (HOP-62): 11.8 µM (inactive)
- GI50 (HL-60): 0.575 µM (active)
- GI50 (RXF 393): 31.6 µM (inactive)
- GI50 (MDA-MB-231): 26.7 µM (inactive)
- GI50 (U-251): 24.7 µM (inactive)
- GI50 (OVCAR-3): 11 µM (inactive)
- GI50 (DU-145): 32.1 µM (inactive)
- GI50 (Hs-578T): 40.6 µM (inactive)
- GI50 (SNB-19): 31.4 µM (inactive)
- GI50 (OVCAR-8): 38.5 µM (inactive)
- GI50 (LOX IMVI): 23.6 µM (inactive)
- GI50 (HCT-116): 17.7 µM (inactive)
- GI50 (HOP-92): 45.8 µM (inactive)
- GI50 (T47D): 36.8 µM (inactive)
- GI50 (OVCAR-5): 51.8 µM (inactive)
- GI50 (SF-268): 17.5 µM (inactive)
- GI50 (HCC 2998): 34.8 µM (inactive)
- GI50 (M14): 20.1 µM (inactive)
- GI50 (Malme-3M): 19.1 µM (inactive)
- GI50 (ACHN): 30.5 µM (inactive)
- GI50 (SK-MEL-2): 21.7 µM (inactive)
- GI50 (IGROV-1): 32 µM (inactive)
- GI50 (MDA-MB-435): 34.1 µM (inactive)
- GI50 (SF-539): 58.7 µM (inactive)
- GI50 (SK-OV-3): 21.5 µM (inactive)
- GI50 (A498): 22.9 µM (inactive)
- GI50 (HCT-15): 13 µM
- GI50 (SN12C): 17.5 µM (inactive)
- GI50 (NCI-H23): 42.1 µM (inactive)
- GI50 (BT-549): 51.2 µM (inactive)

Compound: CC(=O)NNC(=S)N/C=C1/C(=O)C=C(C)OC1=O
- GI50 (UO-31): > 100 µM (inactive)
- GI50 (MCF7): > 100 µM (inactive)
- GI50 (786-0): > 100 µM (inactive)
- GI50 (NCI/ADR-RES): > 100 µM (inactive)
- GI50 (MDA-N): > 100 µM (inactive)
- GI50 (PC-3): > 100 µM (inactive)
- GI50 (HT-29): > 100 µM (inactive)
- GI50 (TK-10): > 100 µM (inactive)
- GI50 (COLO 205): > 100 µM (inactive)
- GI50 (KM12): > 100 µM (inactive)
- GI50 (A549): > 100 µM (inactive)
- GI50 (SW-620): > 100 µM (inactive)
- GI50 (SNB-75): > 100 µM (inactive)
- GI50 (SK-MEL-28): > 100 µM (inactive)
- GI50 (EKVX): > 100 µM (inactive)
- GI50 (NCI-H226): > 100 µM (inactive)
- GI50 (NCI-H460): > 100 µM (inactive)
- GI50 (SK-MEL-5): > 100 µM (inactive)
- GI50 (UACC-257): > 100 µM (inactive)
- GI50 (OVCAR-4): > 100 µM (inactive)
- GI50 (HOP-62): > 100 µM (inactive)
- GI50 (HL-60): > 100 µM (inactive)
- GI50 (MDA-MB-231): > 100 µM (inactive)
- GI50 (U-251): > 100 µM (inactive)
- GI50 (OVCAR-3): > 100 µM (inactive)
- GI50 (DU-145): > 100 µM (inactive)
- GI50 (SNB-19): > 100 µM (inactive)
- GI50 (OVCAR-8): > 100 µM (inactive)
- GI50 (LOX IMVI): > 100 µM (inactive)
- GI50 (HCT-116): > 100 µM (inactive)
- GI50 (HOP-92): > 100 µM (inactive)
- GI50 (CAKI-1): > 100 µM (inactive)
- GI50 (T47D): > 100 µM (inactive)
- GI50 (OVCAR-5): > 100 µM (inactive)
- GI50 (MOLT-4): > 100 µM (inactive)
- GI50 (SF-295): > 100 µM (inactive)
- GI50 (HCC 2998): > 100 µM (inactive)
- GI50 (M14): > 100 µM (inactive)
- GI50 (ACHN): > 100 µM (inactive)
- GI50 (SK-MEL-2): > 100 µM (inactive)
- GI50 (IGROV-1): > 100 µM (inactive)
- GI50 (MDA-MB-435): > 100 µM (inactive)
- GI50 (SF-539): > 100 µM (inactive)
- GI50 (SK-OV-3): > 100 µM (inactive)
- GI50 (HCT-15): > 100 µM
- GI50 (SN12C): > 100 µM (inactive)
- GI50 (NCI-H23): > 100 µM (inactive)
- GI50 (BT-549): > 100 µM (inactive)
